Reference: US20250345370A1, “MICROBIAL LIBERATION OF N-METHYLSEROTONIN FROM ORANGE FIBER” (Washington University, priority 2022, published 2025)
Where two headings read alike, the source gives them in different places.

Tests used:
liver gene expression = assay: RNA-Seq of liver of germ-free mice treated with 50 mg/kg/d N-methylserotonin; format: in vivo, germ-free C57BL/6J mice
Method: RNA-Seq of liver and colonic tissue. Frozen tissue was broken into small pieces and ground into a very fine powder under liquid nitrogen using a mortar and pestle. A 25 mg aliquot of powdered tissue was then aliquoted into shearing matrix F (MP Bio) pre-chilled in liquid nitrogen; 0.5 mL of buffer LBP (Takara) was added immediately and the mixture was placed on a 4° C. cold block. Samples were then disrupted (Biospec bead beater; 2 minutes). The remaining steps in the RNA isolation procedure were performed using a Takara Nucleospin RNA Plus kit. […] Libraries were sequenced using an Illumina Hi-Seq instrument (paired end 75 nucleotide reads; 1.43×10^7±3.74×10^6 reads/liver sample, and 3.27×10^7±1.23×10^6 reads/colon sample). Reads were aligned to the Mus musculus GRCm39 genome assembly with STAR version 2.7.0d. Gene count data were generated from the number of uniquely aligned reads (featureCounts Subread version 1.6.2a). The R package DESEQ2 was used to perform differential gene expression analysis; results were filtered based on an adjusted Benjamini and Hochberg FDR p-value<0.05. Gene set enrichment analysis was carried out using ClusterProfiler with an adjusted p-value cut-off of <0.05 and minimum gene-set size of 3; over-representation was carried out using a loge fold-change cut-off of >1.
Per2 promotes glycogen synthesis. Moreover, genetically engineered disruption of Per3 is associated with resistance to leptin with resulting weight gain, while its deletion directly leads to increased adipogenesis. […] Nfil3 serves as an important link between the gut microbiota, intestinal epithelial lipid metabolism and body composition. […] Moreover, genetic ablation of Nfil3 attenuates high fat diet-induced obesity in mice.

[1] = Human studies with pea and orange fiber snack prototypes: fecal N-methylserotonin and serotonin levels; format: in vivo
Method: Human studies with pea and orange fiber snack prototypes. Two separate open-label, single group assignment studies were performed involving members of the Missouri Adolescent Female Twin Study (MOAFTS) cohort who were age 31-45 years at the time of enrollment. The first study with the pea fiber snack was performed between April and August 2017, while the second study with the orange fiber snack was conducted between August and December 2017. All participants provided written informed consent and the studies were approved by the Washington University Institutional Review Board (IRB ID #201611122). (ClinicalTrials.gov NCT03078283).
The design of the two studies were identical except for the fiber snack supplement used and the number of participants in each study. Individuals who were pregnant or trying to get pregnant, had inflammatory bowel disease, gastrointestinal cancer, hepatitis, HIV, renal failure, or allergies to dairy, eggs, fish, crustacean shellfish, tree nuts, sesame seeds, peanuts, wheat, gluten, soybeans, celery, or mustard were excluded from the study. In Study 1, four twin pairs were concordant for obesity (BMI>30 kg/m2) while five pairs were discordant with one member being obese and the other non-obese (n=18 participants, […] (mean±SD); Table S8B). Study 2 involved 24 participants: 12 dizygotic twin pairs [37±2.9 years (mean±SD)], nine of whom had participated in the pea fiber study; for these nine pairs, the interval between cessation of pea fiber snack consumption and initiation of orange fiber consumption ranged from 50 to 106 days [84+26 days (mean±SD)]. Participants consumed their normal, unrestricted diet for the first two weeks of the study (pre-intervention phase). At the beginning of week three, they supplemented their diets with one 35 g fiber snack serving a day for one week, then two 35 g snack servings a day the following week, and thereafter, three 35 g snacks per day for four weeks (weeks 5-8) at breakfast, lunch and dinner. No attempt was made to adjust the diets of participants other than supplementation with the fiber snack. Snack prototypes were manufactured by Mondeldz International, Inc. (see Table S8A for their composition), which participants received in weekly shipments from the study center. The pea fiber snacks were in the form of rotary biscuits (6.7 g total fiber/35 g snack) or extruded bars (8.1 g fiber/35 g snack) with participants having the option to alternate between them. The orange fiber snacks were all in the form of extruded bars (10.2 g total fiber/35 g snack). Compliance was monitored throughout by the study coordinator through weekly phone calls. The primary outcomes for each study were the effects of the respective prototypes on gut microbial community structure and function.
Fecal samples were collected by participants in small medically approved collection containers. Each fecal sample was frozen immediately at −20° C. and temporarily stored in dedicated freezers provided to participants at the beginning of the study. Within 12-48 hours after collection, all samples were shipped, via overnight delivery, in an insulated container containing frozen gel packs, to a biospecimen repository located in Washington University in St. Louis and overseen by one of the authors (A.C.H.). Once received, samples were stored at −80° C. until processing for LC-QqQ-MS analysis of N-methylserotonin levels and culture-independent characterization of ASV and CAZyme gene abundances.
Measurement of fecal N-methylserotonin levels—Each fecal sample was homogenized with a porcelain mortar (4 L) and pestle while submerged in liquid nitrogen; multiple 500 mg aliquots of the pulverized frozen material were stored at −80° C. N-methylserotonin was quantified using the same protocol that was employed for mouse fecal samples (as described herein elsewhere).
N-methylserotonin levels and microbiome CAZyme gene abundances in humans consuming fiber snack prototypes. […]

[2] = methanol, 50 mg orange fiber

## CNCCc1c[nH]c2ccc(O)cc12 [N-methylserotonin]
Liver gene expression; 50 mg/kg/d vs untreated
  hepatic levels of Nfil3 mRNA: statistically significantly decreased
  liver expression of Arntl and Clock: significantly decreased expression
  liver expression of Per2, Per3, and Nr1d2: significant increases in expression
Liver gene expression; 50 mg/kg/d vs untreated, FDR adjusted p<0.05
  number of genes with statistically significant differences in expression in liver: 716 genes
Liver gene expression; upregulated gene in liver: 0610005C13Rik
  log2 fold-change, 0610005C13Rik (Entrez 71661): 0.39
Liver gene expression; upregulated gene in liver: 2810013P06Rik
  log2 fold-change, 2810013P06Rik (Entrez 100503178): 0.57
Liver gene expression; upregulated gene in liver: 4930523C07Rik
  log2 fold-change, 4930523C07Rik (Entrez 67647): 0.33
Liver gene expression; upregulated gene in liver: Arl13b
  log2 fold-change, Arl13b (Entrez 68146): 0.37
Liver gene expression; upregulated gene in liver: Ccne2
  log2 fold-change, Ccne2 (Entrez 12448): 0.70
Liver gene expression; upregulated gene in liver: Clic1
  log2 fold-change, Clic1 (Entrez 114584): 0.35
Liver gene expression; upregulated gene in liver: Crebrf
  log2 fold-change, Crebrf (Entrez 77128): 0.32
Liver gene expression; upregulated gene in liver: Dixdc1
  log2 fold-change, Dixdc1 (Entrez 330938): 0.32
Liver gene expression; upregulated gene in liver: Fam50a
  log2 fold-change, Fam50a (Entrez 108160): 0.41
Liver gene expression; upregulated gene in liver: Fam126b
  log2 fold-change, Fam126b (Entrez 213056): 0.31
Liver gene expression; upregulated gene in liver: Hebp1
  log2 fold-change, Hebp1 (Entrez 15199): 0.38
Liver gene expression; upregulated gene in liver: Ihh
  log2 fold-change, Ihh (Entrez 16147): 0.74
Liver gene expression; upregulated gene in liver: Kyat1
  log2 fold-change, Kyat1 (Entrez 70266): 0.24
Liver gene expression; upregulated gene in liver: Map1lc3b
  log2 fold-change, Map1lc3b (Entrez 67443): 0.28
Liver gene expression; upregulated gene in liver: Mbtd1
  log2 fold-change, Mbtd1 (Entrez 103537): 0.48
Liver gene expression; upregulated gene in liver: Mxi1
  log2 fold-change, Mxi1 (Entrez 17859): 0.29
Liver gene expression; upregulated gene in liver: Pdcd4
  log2 fold-change, Pdcd4 (Entrez 18569): 0.36
Liver gene expression; upregulated gene in liver: Pnldc1
  log2 fold-change, Pnldc1 (Entrez 240023): 0.83
Liver gene expression; upregulated gene in liver: Prkag2
  log2 fold-change, Prkag2 (Entrez 108099): 0.36
Liver gene expression; upregulated gene in liver: Rcl1
  log2 fold-change, Rcl1 (Entrez 59028): 0.28
Liver gene expression; upregulated gene in liver: Rps15
  log2 fold-change, Rps15 (Entrez 20054): 0.38
Liver gene expression; upregulated gene in liver: Serpina7
  log2 fold-change, Serpina7 (Entrez 331535): 0.41
Liver gene expression; upregulated gene in liver: Smarcd2
  log2 fold-change, Smarcd2 (Entrez 83796): 0.27
Liver gene expression; upregulated gene in liver: Syne3, treated vs untreated germ-free mice
  log2 fold-change, Syne3 (Entrez 212073): 0.57
Liver gene expression; upregulated gene in liver: Tbc1d10a
  log2 fold-change, Tbc1d10a (Entrez 103724): 0.61
Liver gene expression; upregulated gene in liver: Tedc2
  log2 fold-change, Tedc2 (Entrez 72016): 0.43
Liver gene expression; upregulated gene in liver: Ube2b
  log2 fold-change, Ube2b (Entrez 22210): 0.41
Liver gene expression; upregulated gene in liver: Uchl5
  log2 fold-change, Uchl5 (Entrez 56207): 0.34
Liver gene expression; upregulated gene in liver: Zc3h6
  log2 fold-change, Zc3h6 (Entrez 78751): 0.63
Liver gene expression; upregulated gene in liver: Zfp64
  log2 fold-change, Zfp64 (Entrez 22722): 0.41
Liver gene expression; upregulated gene in liver: Zfp960
  log2 fold-change, Zfp960 (Entrez 449000): 0.60
[1]; 36 samples, pea fiber snack prototype, weeks 3 and 5
  fecal samples in which N-methylserotonin was undetectable: 87%
[1]; 48 samples, participants consuming the orange fiber snack prototype
  fecal samples in which N-methylserotonin was present: 98%
[1]; orange fiber snacks at maximal dose (3 snacks/day), mean±SD
  fecal N-methylserotonin concentration: 72.5 ± 38.4 µM
[1]; pea fiber snack prototype, 87% of 36 samples
  fecal N-methylserotonin (undetectable): < 0.05 µg/g
[2]
  N-methylserotonin released after two rounds of extraction: 31 ng
  N-methylserotonin released in total after 15 rounds: 171 ng
[2]; Extraction 1
  N-methylserotonin recovered: 16 ng
[2]; Extraction 2
  N-methylserotonin recovered: 15 ng
[2]; Extraction 3
  N-methylserotonin recovered: 16 ng
[2]; Extraction 4
  N-methylserotonin recovered: 15 ng
[2]; Extraction 5
  N-methylserotonin recovered: 14 ng
[2]; Extraction 6
  N-methylserotonin recovered: 13 ng
[2]; Extraction 7
  N-methylserotonin recovered: 12 ng
[2]; Extraction 8
  N-methylserotonin recovered: 10 ng
[2]; Extraction 9
  N-methylserotonin recovered: 11 ng
[2]; Extraction 10
  N-methylserotonin recovered: 10 ng
[2]; Extraction 11
  N-methylserotonin recovered: 9 ng
[2]; Extraction 12
  N-methylserotonin recovered: 9 ng
[2]; Extraction 13
  N-methylserotonin recovered: 8 ng
[2]; Extraction 14
  N-methylserotonin recovered: 7 ng
[2]; Extraction 15
  N-methylserotonin recovered: 6 ng
